Measured values from patent EP4744665A1, “COMBINATION OF POLQ INHIBITOR COMPOUND AND ANTI-CANCER THERAPEUTIC AGENT OR RADIOTHERAPY” (Simcere Zaiming Pharmaceutical Co., Ltd., priority 2023, dated 2025).

Columns and labels:
[1] = tested on: A2780; assay: Combined use with combination drug, matrix study, Bliss Independence model (Cell Titer Glo, 7 days); format: cell-based, human
Experimental: (§1) DLD-1 colorectal adenocarcinoma cells, DLD-1 BRCA2 (-/-) colorectal adenocarcinoma cells, SHP-77 human small cell lung cancer cells, NCI-H82 human small cell lung cancer cells, LNCAP prostate cancer cells, KURAMOCHI human ovarian cancer cells, A2780 human ovarian cancer cells, and NCI-H23 non-small cell lung cancer cells were cultured in a 1640 medium containing 10% fetal bovine serum. SKOV3 human ovarian cancer cells were cultured in a McCoy's 5A (modified) medium containing 10% fetal bovine serum. OVCAR3 ovarian cancer cells were cultured in a 1640 medium containing 20% fetal bovine serum and 10 µg/mL bovine insulin. MDA-MB-436 breast cancer cells (natural BRCA1 mutation) and A549 non-small cell lung cancer cells were cultured in a DMEM medium containing 10% fetal bovine serum. Capan-1 human pancreatic cancer cells (natural BRCA2 mutation) were cultured in an IMDM medium containing 20% fetal bovine serum. The cells were all cultured at 37 °C with 5% CO2. Cells at the logarithmic growth phase were available for the experiment.
(§2) 100 µL of the cell medium was added to rows A and H and columns 1 and 12 of a 96-well cell culture plate. Cultured cells were resuspended (adherent cells were digested with trypsin) and counted to give information on cell density and viability. The dilution ratio of the resuspended cells required for inoculating a fixed number of cells into 80 µL of the medium in each culture well was calculated based on the cell density information. After the resuspended cells were diluted with the corresponding medium, 80 µL of the diluted cells were transferred to columns 2-11 of rows B-G of a 96-well cell culture plate using an Eppendorf multi-channel pipette (60 wells in total for each plate). The cell culture plate was incubated overnight in an incubator at 37 °C with 5% CO2.
(§3) The test compound and the combination compound were dissolved in DMSO to give a 10 mM solution for later use. In the experiment, the compound was further diluted to the corresponding concentration according to the concentration designed in the experiment, and based on this concentration, serial gradient dilution was performed. Matrix study was performed at 8 or 7 dose concentrations of the test compound (the lowest dose concentration was 0, and other specific concentration values were shown in FIG. 1) and 7 or 8 dose concentrations of the combination compound (the lowest dose concentration was 0, and other specific concentration values were shown in FIG. 1). 10 µL of each of the diluted combination compound and test compound was added to the corresponding cell plate well, such that the final concentration of DMSO was 0.25%. The test compound and the cells were incubated in an incubator at 37 °C with 5% CO2 for another 7 days, Cell Titer Glo was added at 50 µL/well, and the luminescence value of each well was read using an Envision microplate reader.
(§4) The luminescence value of the well containing only the cell medium was taken as the background (RLUbackground, corresponding cell survival rate to be 0%), the cell well containing only 0.25% DMSO without the compound was taken as the maximum signal (RLUDMSO, corresponding cell survival rate to be 100%), and the luminescence values of the remaining wells containing cells and compounds at different concentrations were taken as RLUsample. The survival rate of each cell well was calculated as follows: Survival rate (%) = (RLUsample−RLUbackground)/(RLUDMSO−RLUbackground) × 100% [formula]
(§5) The interaction between drugs (synergistic, independent, or antagonistic) was statistically analyzed by the Bliss Independence model using Combenefit software (Bliss, C.I., Bacteriol. Rev., 1956, 20, 243-258). The model assumes that each drug acts independently. The theoretical expected action curve of the combination was calculated from the following equation: Bliss effect = effect A + effect B−effect A × effect B [formula] wherein effect A and effect B are the effects of drugs A and B alone at specific concentrations. […]

[2] = tested on: Capan-1; assay: as above; format: cell-based, human
Experimental: as §1, §2, §3, §4, §5

[3] = tested on: KURAMOCHI; assay: as above; format: cell-based, human
Experimental: as §1, §2, §3, §4, §5

[4] = tested on: NCI-H82; assay: as above; format: cell-based, human; conditions: combination with Etoposide (Topoisomerase II inhibitor)
Experimental: as §1, §2, §3, §4, §5

[5] = tested on: SKOV3; assay: as above; format: cell-based, human
Experimental: as §1, §2, §3, §4, §5

[6] = tested on: human breast cancer MDA-MB-436 cells; assay: Efficacy of combined use with olaparib in MDA-MB-436 xenograft tumor model; format: in vivo, NOD-SCID mice; conditions: 30 mg/kg QD intragastric in combination with 10 mg/kg olaparib QD
Excerpt: The anti-tumor activity of the sodium salt of compound I used in combination with olaparib (MCE, 136925) was studied using a MDA-MB-436 subcutaneous tumor model. 24 female NOD-SCID mice (6-7 weeks old, Beijing Vital River Laboratory Animal Technology Co., Ltd.) were subcutaneously inoculated with 1 × 10^7 human breast cancer MDA-MB-436 cells (natural BRCA1 mutation, Nanjing Cobioer). When the tumors grew to 80-120 mm^3, the mice were randomly divided into four groups with six mice per group: a first group treated with vehicle control (QD) by intragastric administration, a second group treated with a 30 mg/kg solution of the sodium salt of compound I (QD) by intragastric administration, a third group treated with a 10 mg/kg olaparib solution (QD) by intragastric administration, and a fourth group treated with a 30 mg/kg solution of the sodium salt of compound I (QD) by intragastric administration and a 10 mg/kg olaparib solution (QD) by intragastric administration. The vehicle of olaparib was a solution containing 10% DMSO, 50% 2-hydroxypropyl-β-cyclodextrin (Aladdin-F2223139, 60% aqueous solution), and 40% water, the vehicle of the sodium salt of compound I was 10% (w/v) Vitamin E TPGS (Hanhong Chemical-BH-GN0100619-22 1101) aqueous solution, and the vehicle of the vehicle control group was a mixture of the vehicle of olaparib and the vehicle of the sodium salt of compound I (mixed at a volume ratio of 1:1). Mice had free access to food and water throughout the experiment.
Tumor diameters were measured twice weekly using a vernier caliper. The tumor volume (V) was calculated using the following formula: V = 0.5a × b^2, wherein a and b represent the long diameter and short diameter of the tumor, respectively.
Mouse body weight was measured twice weekly.
Two way ANOVA was used to compare the differences in tumor growth trend among groups, and a significant difference was considered when p < 0.05.

[7] = combination with Doxorubicin hydrochloride (Topoisomerase II inhibitor)
[8] = combination with Paclitaxel (Tubulin inhibitor)

With `COc1ccc(Cl)cc1-c1cc(C)ncc1C(=O)Nc1nc2ncc(-c3ccc(C#N)cc3)nc2s1.[Na]` [Sodium salt of compound I, Sodium Salt of 4-(5-Chloro-2-methoxyphenyl)-N-[6-(4-cyanophenyl)thiazolo[4,5-b]pyrazin-2-yl]-6-methylnicotinamide] the Combined effect [1, 7] was “Synergistic”, the Combined effect ([1]; combination with Etoposide (Topoisomerase II inhibitor)) was “Synergistic” and the Combined effect [1, 8] was “Synergistic”. The Combined effect ([2]; combination with Niraparib (PARP inhibitor)) was “Synergistic”, the Combined effect ([2]; combination with Olaparib (PARP inhibitor)) was “Synergistic” and the Combined effect ([2]; combination with RP3500 (ATR inhibitor)) was “Synergistic”. The Combined effect ([2]; combination with Talazoparib (PARP inhibitor)) was “Synergistic”, the Combined effect [3, 7] was “Synergistic” and the Combined effect [3, 8] was “Synergistic”. The Combined effect [4] was “Synergistic”, the Combined effect [5, 7] was “Synergistic” and the Combined effect [5, 8] was “Synergistic”. The “anti-tumor effect of combination with olaparib” value [6] was “synergistic anti-tumor effect”, the tumor volume ([6]; versus either single drug group) was “significantly lower” and the safety ([6]; condition of mice, body weight) was “good safety”.
